Values quoted from earlier work, collected in US6174531A, “Methods of preparation of bioginkgo” (priority 1998, dated 2001).
Where two headings read alike, the source gives them in different places.

Assays:
[1] = tested on: PAF platelet membrane receptor; settings: in vitro, literature
[2] = humans, literature
[3] = rats, literature

Row | Structure (SMILES) | specificity of inhibition of PAF binding to its platelet receptors [1] | IC50 ([1]; read-out: IC50, inhibition of PAF binding to its platelet receptors) [nM] | half-life compared with ginkgolide A [2] | half-life compared with ginkgolide A [3]
1 | C[C@@H]1C(=O)O[C@H]2C[C@@]34[C@H]5C[C@@H](C(C)(C)C)[C@]36[C@@H](OC(=O)[C@@H]6O)O[C@@]4(C(=O)O5)[C@]21O [ginkgolide A] | highly specific |  |  | 
2 | CC1C(=O)OC2C(O)C34C5CC(C(C)(C)C)C36C(OC(=O)C6O)OC4(C(=O)O5)C12O (stereo not drawn) [ginkgolide B] | highly specific | ~100 | longer half-life | longer half-life
3 | CC1C(=O)OC2C(O)C34C5OC(=O)C3(OC3OC(=O)C(O)C34C(C(C)(C)C)C5O)C12O (stereo not drawn) [ginkgolide C] | highly specific |  |  | 
